Measurements reported in US9593305B2, “Differentiation of pluripotent stem cells” (Janssen Biotech, Inc., priority 2008, dated 2017).

Test system: H1 human embryonic stem cells
Assay: Secondary screening with EGF/FGF4 in the absence of activin A (Example 4)
Format: cell-based
Conditions: for Cell Number: % of positive control / Cell Number: Average Total Cell Number / Sox17 Expression: % of positive control / Sox17 Expression: Average Total Intensity: 2.5 μM compound + 50 ng/ml EGF + 50 ng/ml FGF4, Wnt3a, no activin A, four days
Experimental: Clusters of H1 human embryonic stem cells were grown on reduced growth factor […]™ (Invitrogen; Cat #356231)-coated tissue culture plastic. Cells were passaged using collagenase (Invitrogen; Cat #Cat #17104-019) treatment and gentle scraping, washed to remove residual enzyme, and plated with even dispersal at a ratio of 1:1 (surface area) on reduced growth factor […]™-coated 96-well black plates (Packard ViewPlates; PerkinElmer; Cat #6005182) using volumes of 100 μl/well. Cells were allowed to attach as clusters and then recover log phase growth over a 1 to 3 day period, feeding daily with MEF conditioned medium supplemented with 8 ng/ml bFGF (R&D Systems; Cat #233-FB). Plates were maintained at 37° C., 5% CO2 in a humidified box throughout the duration of assay.
Stock concentrations for EGF (R&D Systems; Cat #236-EG) and FGF4 (R&D Systems; Cat #235-F4) were 250 ng/ml, each solubilized in PBS with 0.1% BSA (Sigma; Cat #A7888). Compounds were available as 5 mM stocks in 96-well plate format, solubilized in 100% DMSO (Sigma; Cat #D2650) and stored at −80° C. The compounds were further diluted to an intermediate concentration of 0.2 mM in 50 mM HEPES (Invitrogen; Cat #15630-080), 20% DMSO and stored at 4° C. All growth factors and inhibitors were prepared in a deep well, 96-well polypropylene plate, diluted to 5× intermediate stocks in DMEM:F12 base medium at the beginning of assay and stored at 4° C.
A secondary screening assay was conducted, testing in triplicate and feeding on alternate days over the four-day assay timeframe. Assays were initiated by aspirating culture medium from each well followed by three washes in PBS to remove residual growth factors and serum. Test volumes of 80 μl per well were added back containing DMEM:F12 base medium (Invitrogen; Cat #11330-032) supplemented with 0.625% FCS (HyClone; Cat #SH30070.03), 25 ng/ml Wnt3a (R&D Systems), and 3.125 μM compound plus 20 μl 5× stock of growth factors to yield a final concentration of 0.5% FCS, 20 ng/ml Wnt3a, and 2.5 μM compound plus 50 ng/ml EGF and 50 ng/ml FGF4 in the assay. Positive control wells (100 μl/well) contained the same base medium supplemented with 0.5% FCS, 20 ng/ml Wnt3a and 100 ng/ml activin A. Negative control wells (100 μl/well) contained the same base medium with 0.5% FCS and 20 ng/ml Wnt3a, omitting activin A.
On day 3, wells were aspirated and fed with 80 μl DMEM:F12 base medium supplemented with 2.5% FCS (HyClone) and 3.125 μM compound plus […] 5× stock of growth factors per well to yield a final concentration of 2% FCS and 2.5 μM compound (omitting Wnt3a) plus 50 ng/ml EGF and FGF4 in the assay. Positive control wells (100 μl/well) contained the same base medium supplemented with 2% FCS and 100 ng/ml activin A, omitting Wnt3a. Negative control wells (100 μl/well) contained the same base medium with 2% FCS, omitting both activin A and Wnt3a.
At the conclusion of four-days of culture, assay plates were washed twice with PBS, fixed with 4% paraformaldehyde (Alexis Biochemical; Cat #ALX-350-011) at room temperature for 20 minutes, then washed three times with PBS and permeabilized with 0.5% Triton X-100 (Sigma; Cat #T8760-2) for 20 minutes at room temperature. Cells were washed again three times with PBS and blocked with 4% chicken serum (Invitrogen; Cat 16110082) in PBS for 30 minutes at room temperature. Primary antibody (goat anti-human SOX17; R&D Systems; cat #AF1924) was diluted 1:100 in 4% chicken serum and added to each well for one hour at room temperature. Alexa Fluor 488 conjugated secondary antibody (chicken anti-goat IgG; Molecular Probes; Cat #AZ1467) was diluted 1:200 in PBS and added to each sample well after washing three times with PBS. To counterstain nuclei, 4 μg/ml Hoechst 33342 (Invitrogen; Cat #H3570) was added for ten minutes at room temperature. Plates were washed once with PBS and left in 100 μl/well PBS for imaging. […]

[1] = Table 3B most potent compounds, with EGF + FGF4, no activin A

Row | SMILES | Cell Number: % of positive control | Cell Number: Average Total Cell Number | Sox17 Expression: % of positive control | Sox17 Expression: Average Total Intensity | Cell Number, % of positive control [1] | Sox17 Intensity % of positive control [1]
1 | O=C1NCCCc2cncc(c2)-c2ncnc(n2)Nc2cccc(c2)CN2CCCC1C2 (centres unmarked) [Compound 17, 3,5,7,14,20,26,31-Heptaazapentacyclo[22.3.1.1-2,6˜1˜8,12˜1˜14,18˜]hentriaconta-1(28), 2(31), 3,5,8(30), 9,11,24,26-nonaen-19-one] | 114.51 % of positive control | 21445 | 18.48 % of positive control | 3.43E+07 |  | 
2 | O=C1NCCCc2cncc(c2)-c2ncnc(n2)Nc2cccc(c2)CN2CCC1CC2 [Compound 22, 1,8,10,12,16,22,30-Heptaazapentacyclo[22.2.2.1-3,7˜0.1˜9,13˜1-14,18˜]hentriaconta-3(31), 4,6,9(30), 10,12,14(29), 15,17-nonaen-23-one] | 97.91 % of positive control | 18336 | 20.05 % of positive control | 3.72E+07 |  | 
3 | CCN1CCCc2cccc(c2)-c2ncnc(n2)Nc2cccc(c2)CCNC(=O)C1 [Compound 29, 18-Ethyl-3,5,7,15,18,28-hexaazatetracyclo[20.3.1.1˜2,6˜0.1˜8,12˜]octacosa-1(26), 2(28), 3,5,8(27), 9,11,22,24-nonaen-16-one] | 107.97 % of positive control | 20221 | 15.27 % of positive control | 2.83E+07 |  | 
4 | O=C1CCN2CCN(CC2)Cc2cc(Cl)cc(c2)Nc2ncnc(n2)-c2cncc(c2)CCCN1 [Compound 34, 5-Chloro-1,8,10,12,16,22,26,32-octaazapentacyclo[24.2.2.1˜3.7˜0.1˜9,13˜0.1˜14.18˜]tritriaconta-3(33), 4,6,9(32), 10,12,14(31), 15,17-nonaen-23-one] | 100.87 % of positive control | 18891 | 17.55 % of positive control | 3.26E+07 |  | 
5 | CCN1CC(=O)NCCCc2cncc(c2)-c2ncnc(n2)Nc2cc(Cl)cc(c2)C1 [Compound 35, 10-Chloro-14-ethyl-3,5,7,14,17,23,27-heptaazatetracyclo[19.3.1.1˜2,6˜0.1˜8,12]Theptacosa-1(25), 2(27), 3,5,8(26), 9,11,21,23-nonaen-16-one] |  |  |  |  | 127.20 % of positive control | 13.69 % of positive control
6 | O=C1NCCCc2cncc(c2)-c2ncnc(n2)Nc2cc(Cl)cc(c2)CN2CCCC1C2 (centres unmarked) [Compound 37, 10-Chloro-3,5,7,14,20,26,31-heptaazapentacyclo[22.3.1.1˜2,6˜0.1˜8,12˜0.1˜14,18˜]hentriaconta-1(28), 2(31), 3,5,8(30), 9,11,24,26-nonaen-19-one] | 83.32 % of positive control | 15605 | 14.37 % of positive control | 2.67E+07 |  | 
7 | CN1CCC(=O)NCCCNc2ncccc2-c2ncnc(n2)Nc2cccc(c2)C1 [Compound 39, 9-Methyl-2,3,4,5,7,8,9,10-octahydro-16H-17,21-(azeno)-11,15-(metheno)pyrido[3,2-g][1,3,5,9,13,17]hexaazacyclotricosin-6(1H)-one] | 91.28 % of positive control | 17095 | 15.19 % of positive control | 2.82E+07 |  | 
